Experimental data reported in patent US20010008892A1 (priority 1998, published 2001).
Read-outs that look alike come from different tables or passages of the source.

Tests used:
HIV-1 protease = HIV-1 protease (Human immunodeficiency virus type 1 group M subtype B, UniProt P04585); assay: Fluorogenic assay for screening inhibitors of HIV protease; conditions: for inhibition at 0.0005 µM: pH 4.5, read-out: % Inhib. (0.5 nM); for % Inhib. (0.5 nM): compound concentration 0.5 nM, fluorogenic substrate 1.3 μM, pH 4.5, 30° C.
Method: A compound of the invention is dissolved in DMSO. A small aliquot is diluted with DMSO to 100 times the final concentration desired for testing. The test is carried out in a 6×50 mm tube in a total volume of 300 microliters. The final concentrations of the components in the reaction buffer are: 125 mM sodium acetate, 1 M sodium chloride, 5 mM dithiothreitol, 0.5 mg/ml bovine serum albumin, 1.3 μM fluorogenic substrate, 2% (v/v) dimethylsulfoxide, pH 4.5. After addition of inhibitor, the reaction mixture is placed in the fluorometer cell holder and incubated at 30° C. for several minutes. The reaction is initiated by the addition of a small aliquot of cold HIV protease. The fluorescence intensity (excitation 340 nm, emmision 490 nM) is recorded as a function of time. The reaction rate is determined for the first six to eight minutes. The observed rate is directly proportional to the moles of substrate cleaved per unit time. The percent inhibition is 100×(1- (rate in presence of inhibitor)/(rate in absence of inhibitor)).
The test compounds were then tested at a concentration of 0.5 nM.

[1] = Cytotoxicity in MT4 cells (LC50, 50% of the cells remain viable); format: cell-based; conditions: human
Text: (§1) The IC50 is the concentration of compound that gives 50% inhibition of the cytopathic effect of HIV. The LC50 is the concentration of compound at which 50% of the cells remain viable.

HIV = assay: Antiviral activity: inhibition of the cytopathic effect of HIV in MT4 cells; format: cell-based
Text: as §1

MT4 cells = assay: Cytotoxicity in MT4 cells (LC50, 50% of the cells remain viable); format: cell-based; conditions: MT4 cells; concentration at which 50% of the cells remain viable
Text: as §1

[2] = Human immunodeficiency virus 1, MT4 cells, 50% inhibition of the cytopathic effect of HIV, read-out: EC50
[3] = MT4 cells, 50% inhibition of the cytopathic effect of HIV, read-out: EC50

CC(C)c1nc(CN(C)C(=O)N[C@H](C(=O)N[C@@H](Cc2ccccc2)[C@H](O)CN2CCN(Cc3cncs3)C[C@H]2C(=O)NC(C)(C)C)C(C)C)cs1 [Example 12, N′-[(1S)-1-[[[(1S,2R)-3-[(2S)-2-[[(1,1-Dimethylethyl)amino]carbonyl]-4-(5-thiazolylmethyl)-1-piperazinyl]-2-hydroxy-1-(phenylmethyl)propyl]amino]carbonyl]-2-methylpropyl]-N-methyl-N-[2-(1-methylethyl)-4-thiazolylmethyl]urea]
inhibition at 0.0005 µM (HIV-1 protease): 61%
CC50 [1]: 70300 nM
EC50 (HIV; [2]): 13 nM

CC(C)c1nc(CN(C)C(=O)N[C@H](C(=O)N[C@@H](Cc2ccccc2)[C@H](O)CN2CCN(Cc3ccccc3)C[C@H]2C(=O)NC(C)(C)C)C(C)C)cs1 [Example 13, N′-[(1S)-1-[[[(1S,2R)-3-[(2S)-2-[[(1,1-Dimethylethyl)amino]carbonyl]-4-(phenylmethyl)-1-piperazinyl]-2-hydroxy-1-(phenylmethyl)propyl]amino]carbonyl]-2-methylpropyl]-N-methyl-N-[2-(1-methylethyl)-4-thiazolylmethyl]urea]
inhibition at 0.0005 µM (HIV-1 protease): 66%
CC50 [1]: 60400 nM
EC50 (HIV; [2]): 48 nM

COc1cc(CN2CCN(C[C@@H](O)[C@H](Cc3ccccc3)NC(=O)[C@@H](NC(=O)N(C)Cc3csc(C(C)C)n3)C(C)C)[C@H](C(=O)NC(C)(C)C)C2)ccc1O [Example 14, N′-[(1S)-1-[[[(1S,2R)-3-[(2S)-2-[[(1,1-Dimethylethyl)amino]carbonyl]-4-[(4-hydroxy-3-methoxyphenyl)methyl]-1-piperazinyl]-2-hydroxy-1-(phenylmethyl)propyl]amino]carbonyl]-2-methylpropyl]-N-methyl-N-[2-(1-methylethyl)-4-thiazolylmethyl]urea]
inhibition at 0.0005 µM (HIV-1 protease): 63%
CC50 [1]: 22700 nM
EC50 (HIV; [2]): 41 nM

COc1ccc(CN2CCN(C[C@@H](O)[C@H](Cc3ccccc3)NC(=O)[C@@H](NC(=O)OCc3csc(C)n3)C(C)C)[C@H](C(=O)NC(C)(C)C)C2)cc1OC [Example 16, 2-Methyl-4-thiazolylmethyl-[(1S)-1-[[[(1S,2R)-3-[(2S)-4-[(3,4-dimethoxylphenyl)methyl]-2-[[(1,1-dimethylethyl)amino]carbonyl]-1-piperazinyl]-2-hydroxy-1-(phenylmethyl)propyl]amino]carbonyl]-2-methylpropyl]carbamate]
% Inhib. (0.5 nM) (HIV-1 protease): 49%
CC50 (MT4 cells): 61700 nM
EC50 (HIV; [3]): 10 nM

Cc1nc(COC(=O)N[C@H](C(=O)N[C@@H](Cc2ccccc2)[C@H](O)CN2CCN(Cc3ccc(F)cc3)C[C@H]2C(=O)NC(C)(C)C)C(C)C)cs1 [Example 17, 2-Methyl-4-thiazolylmethyl-[(1S)-1-[[[(1S,2R)-3-[(2S)-2-[[(1,1-dimethylethyl)amino]carbonyl]-4-[(4-fluorophenyl)methyl]-1-piperazinyl]-2-hydroxy-1-(phenylmethyl)propyl]amino]carbonyl]-2-methylpropyl]carbamate]
% Inhib. (0.5 nM) (HIV-1 protease): 50%
CC50 (MT4 cells): 39200 nM
EC50 (HIV; [3]): 11 nM

CCc1nc(COC(=O)N[C@H](C(=O)N[C@@H](Cc2ccccc2)[C@H](O)CN2CCN(Cc3ccc(OC)c(OC)c3)C[C@H]2C(=O)NC(C)(C)C)C(C)C)cs1 [Example 18]
% Inhib. (0.5 nM) (HIV-1 protease): 82%
CC50 (MT4 cells): 44600 nM
EC50 (HIV; [3]): 19 nM

COc1ccc(CN2CCN(C[C@@H](O)[C@H](Cc3ccccc3)NC(=O)[C@@H](NC(=O)OCc3cnc(C(C)C)s3)C(C)C)[C@H](C(=O)NC(C)(C)C)C2)cc1OC [Example 19, 2-(1-Methylethyl)-5-thiazolylmethyl-[(1S)-1-[[[(1S,2R)-3-[(2S)-4-[(3,4-dimethoxylphenyl)methyl]-2-[[(1,1-dimethylethyl)amino]carbonyl]-1-piperazinyl]-2-hydroxy-1-(phenylmethyl)propyl]amino]carbonyl]-2-methylpropyl]carbamate]
% Inhib. (0.5 nM) (HIV-1 protease): 51%
CC50 (MT4 cells): 20700 nM
EC50 (HIV; [3]): 17 nM

CCc1ncc(COC(=O)N[C@H](C(=O)N[C@@H](Cc2ccccc2)[C@H](O)CN2CCN(Cc3ccc(OC)c(OC)c3)C[C@H]2C(=O)NC(C)(C)C)C(C)C)s1 [Example 20]
% Inhib. (0.5 nM) (HIV-1 protease): 37%
CC50 (MT4 cells): 49700 nM
EC50 (HIV; [3]): 16 nM

COc1ccc(CN2CCN(C[C@@H](O)[C@H](Cc3ccccc3)NC(=O)[C@@H](NC(=O)OCc3cnc(C)s3)C(C)C)[C@H](C(=O)NC(C)(C)C)C2)cc1OC [Example 21, 2-Methyl-5-thiazolylmethyl-[(1S)-1-[[[(1S,2R)-3-[(2S)-4-[(3,4-dimethoxylphenyl)methyl]-2-[[(1,1-dimethylethyl)amino]carbonyl]-1-piperazinyl]-2-hydroxy-1-(phenylmethyl)propyl]amino]carbonyl]-2-methylpropyl]carbamate]
% Inhib. (0.5 nM) (HIV-1 protease): 44%
CC50 (MT4 cells): 53000 nM
EC50 (HIV; [3]): 11 nM

CC(C)[C@H](NC(=O)N(C)Cc1cncs1)C(=O)N[C@@H](Cc1ccccc1)[C@H](O)CN1CCN(Cc2cncs2)C[C@H]1C(=O)NC(C)(C)C [Example 23, N′-[(1S)-1-[[[(1S,2R)-3-[(2S)-2-[[(1,1-Dimethylethyl)amino]carbonyl]-4-(5-thiazolylmethyl)-1-piperazinyl]-2-hydroxy-1-(phenylmethyl)propyl]amino]carbonyl]-2-methylpropyl]-N-methyl-N-(5-thiazolylmethyl)urea]
inhibition at 0.0005 µM (HIV-1 protease): 51%
CC50 [1]: > 100000 nM
EC50 (HIV; [2]): 259 nM

CC(C)[C@H](NC(=O)OCc1cncs1)C(=O)N[C@@H](Cc1ccccc1)[C@H](O)CN1CCN(Cc2cncs2)C[C@H]1C(=O)NC(C)(C)C [Example 25]
% Inhib. (0.5 nM) (HIV-1 protease): 45%
CC50 (MT4 cells): > 100000 nM
EC50 (HIV; [3]): 57 nM

CC(C)CN(C[C@@H](O)[C@H](Cc1ccccc1)NC(=O)[C@@H](NC(=O)N(C)Cc1csc(C(C)C)n1)C(C)C)C(=O)NC(C)(C)C [Example 26]
inhibition at 0.0005 µM (HIV-1 protease): 42%
CC50 ([1]; MT4 cells, concentration at which 50% of the cells remain viable, read-out: LC50 (the source's name)): 17400 nM
EC50 (HIV; Human immunodeficiency virus 1, MT4): 817 nM

CC(C)c1nc(CN(C)C(=O)N[C@H](C(=O)N[C@@H](Cc2ccccc2)[C@H](O)CN(C(C)C)S(=O)(=O)c2ccc(N)cc2)C(C)C)cs1 [Example 29, N′-[(1S)-1-[[[(1S,2R)-3-[[(4-Aminophenyl)sulfonyl](1-methylethyl)amino]-2-hydroxy-1-(phenylmethyl)propyl]amino]carbonyl]-2-methylpropyl]-N-methyl-N-[2-(1-methylethyl)-4-thiazolylmethyl]urea]
inhibition at 0.0005 µM (HIV-1 protease): 64%
CC50 [1]: 31200 nM
EC50 (HIV; [2]): 175 nM

CC(C)c1ncc(COC(=O)N[C@H](C(=O)N[C@@H](Cc2ccccc2)[C@H](O)CN2C[C@H]3CCCC[C@H]3C[C@H]2C(=O)NC(C)(C)C)C(C)C)s1 [Example 30, 2-(1-Methylethyl)-5-thiazolylmethyl-[(1S)-1-[[[(1S,2R)-3-[(3S)-3-[[(1,1-dimethylethyl)amino]carbonyl](4aα,8aα)octahydro-2-isoquinolinyl]-2-hydroxy-1-(phenylmethyl)propyl]amino]carbonyl]-2-methylpropyl]carbamate]
% Inhib. (0.5 nM) (HIV-1 protease): 55%
CC50 (MT4 cells): 17900 nM
EC50 (HIV; [3]): 20 nM

CC(C)c1ncc(CN(C)C(=O)N[C@H](C(=O)N[C@@H](Cc2ccccc2)[C@H](O)CN2C[C@H]3CCCC[C@H]3C[C@H]2C(=O)NC(C)(C)C)C(C)C)s1 [Example 31, N′-[(1S)-1-[[[(1S,2 R)-3-[(3S)-3-[[(1,1-Dimethylethyl)amino]carbonyl](4aα,8aα)-octahydro-2-isoquinolinyl]-2-hydroxy-1-(phenylmethyl)propyl]amino]carbonyl]-2-methylpropyl]-N-methyl-N-[2-(1-methylethyl)-5-thiazolylmethyl]urea]
% Inhib. (0.5 nM) (HIV-1 protease): 48%
CC50 (MT4 cells): 17200 nM
EC50 (HIV; [3]): 58 nM

CC(C)c1nc(CN(C)C(=O)N[C@H](C(=O)N[C@@H](Cc2ccccc2)[C@H](O)CN2CC[C@@H](OCc3cncs3)C[C@H]2C(=O)NC(C)(C)C)C(C)C)cs1 [Example 32, N′-[(1S)-1-[[[(1S,2R)-3-[(2S,4R)-2-[[(1,1-Dimethylethyl)amino]carbonyl]-4-(5-thiazolylmethoxy)-1-piperidinyl]-2-hydroxy-1-(phenylmethyl)propyl]amino]carbonyl]-2-methylpropyl]-N-methyl-N-[2-(1-methylethyl)-4-thiazolylmethyl]urea]
inhibition at 0.0005 µM (HIV-1 protease): 66%
CC50 [1]: 64100 nM
EC50 (HIV; [2]): 15 nM
